We go through 31 compounds from patent publication US10098883B2, “(Aza)pyridopyrazolopyrimidinones and indazolopyrimidinones and their use” (BAYER PHARMA AKTIENGESELLSCHAFT, priority 2013, dated 2018).

Structures are written as SMILES. Structures can show the parent of a compound that is named as a salt.

The test system of one test is clot lysis (fibrinolysis) in human citrated plasma, tPA-induced. The experiment in a line: Plasma-based clot lysis assay (5%). The test is classed as biochemical. To be noted: diluted human citrated plasma (platelet-poor, 5%), fibrinogen 3 μM, CaCl2 10 mM, tPA 0.2 nM, 37° C., OD 405 nm. The procedure:
B-2. Plasma-based Clot Lysis Assay (5%)
The clot-lysis test system configures the kinetics of clot formation and degradation in vitro and allows quantifying modulation of the process by selected test compounds.
The test compounds were dissolved in 1% acetic acid and further complemented with an equal volume of DMSO. The resulting stock solutions were serially diluted in 0.5% acetic acid/50% DMSO. 1 μL aliquots of these solutions were placed into 384 well microplates (Greiner, black, transparent bottom), followed by 30 μL of diluted human citrated plasma (platelet-poor, final concentration: 5%; supplemented with fibrinogen, final concentration: 3 μM; dilution buffer: 20 mM HEPES, 150 mM NaCl, 0.01% Brij (pH 7)). The reactions were started by addition of […] of CaCl2 (final concentration: 10 mM), and tPA (tissue plasminogen activator, final concentration: 0.2 nM) in dilution buffer, followed by an additional volume of 20 μL dilution buffer for improved mixing. The reactions were incubated at 37° C. Clot formation and degradation was monitored spectrophotometrically by kinetic optical density measurements at 405 nm. IC50 values were determined by comparing the resulting time courses with the time course of a blank control reaction.
Broadly, the IC50 is the concentration at which inhibition is half-maximal. Read a low IC50 as inhibition by little substance. `O=c1cc(C2CCNCC2)n2nc3cccc(-c4ccsc4)c3c2[nH]1` [Example 84, 4-(Piperidin-4-yl)-10-(3-thienyl)pyrimido[1,2-b]indazol-2(1H)-one hydrochloride]: 23 nM corresponded to half-maximal inhibition (IC50).

`Nc1ccc2c(c1)nn1c(C3CCNCC3)cc(=O)[nH]c21` [Example 16, 8-Amino-4-(piperidin-4-yl)pyrimido[1,2-b]indazol-2(1H)-one hydrochloride]: half-maximal inhibition (IC50) was put at 34 nM.

Compound `O=c1cc(C2CCNCC2)n2nc3cccc(OC(F)(F)F)c3c2[nH]1` [Example 37, 4-(Piperidin-4-yl)-10-(trifluoromethoxy)pyrimido[1,2-b]indazol-2(1H)-one hydrochloride] displayed a concentration for half-maximal inhibition (IC50) of 44 nM.

Turning to `Cc1cc(Br)c2c(c1)nn1c(C3CCNCC3)cc(=O)[nH]c21` [Example 89, 10-Bromo-8-methyl-4-(piperidin-4-yl)pyrimido[1,2-b]indazol-2(1H)-one hydrochloride], 36 nM corresponded to half-maximal inhibition (IC50).

`O=c1cc(C2CCNCC2)n2nc3cc(Br)ccc3c2[nH]1` [Example 21, 8-Bromo-4-(piperidin-4-yl)pyrimido[1,2-b]indazol-2(1H)-one hydrochloride] registered an IC50 of 30 nM.

On to `Cc1nnc2nn3c(C4CCNCC4)cc(=O)[nH]c3c2c1C` [Example 17, 3,4-Dimethyl-8-(piperidin-4-yl)pyrimido[1′,2′:1,5]pyrazolo[3,4-c]pyridazin-6(5H)-one hydrochloride], for which the midpoint of inhibition, the IC50, lay at 22 nM.

Compound `O=c1cc(C2CCNCC2)n2nc3cccc(OCC(F)(F)F)c3c2[nH]1` [Example 107, 4-(piperidin-4-yl)-10-(2,2,2-trifluoroethoxy)pyrimido[1,2-b]indazol-2(1H)-one hydrochloride] gave an IC50 of 34 nM.

Regarding `COc1ccccc1-c1cccc2nn3c(C4CCNCC4)cc(=O)[nH]c3c12` [Example 65, 10-(2-Methoxyphenyl)-4-(piperidin-4-yl)pyrimido[1,2-b]indazol-2(1H)-one hydrochloride], the IC50 was determined as 25 nM.

With `Cc1cc(Cl)c2c(c1)nn1c(C3CCNCC3)cc(=O)[nH]c21` [Example 79, 10-Chloro-8-methyl-4-(piperidin-4-yl)pyrimido[1,2-b]indazol-2(1H)-one hydrochloride], the IC50 is 11 nM.

For the compound `O=c1cc(C2CCNCC2)n2nc3cccc(C4CC4)c3c2[nH]1` [Example 61, 10-Cyclopropyl-4-(piperidin-4-yl)pyrimido[1,2-b]indazol-2(1H)-one hydrochloride], 24 nM corresponded to half-maximal inhibition (IC50).

For the compound `O=c1cc(C2CCNCC2)n2nc3cccc(F)c3c2[nH]1` [Example 4, 10-Fluoro-4-(piperidin-4-yl)pyrimido[1,2-b]indazol-2(1H)-one hydrochloride], half-maximal inhibition (IC50) required 28 nM.

Turning to `O=c1cc(C2CCNCC2)n2nc3nccnc3c2[nH]1` [Example 38, 7-(Piperidin-4-yl)pyrazino[2′,3′:3,4]pyrazolo[1,5-a]pyrimidin-9(10H)-one hydrochloride], the 50% inhibitory concentration (IC50) came to 60 nM.

The compound `O=c1cc(C2CCNCC2)n2nc3ccncc3c2[nH]1` [Example 49, 4-(Piperidin-4-yl)pyrido[4′,3′:3,4]pyrazolo[1,5-a]pyrimidin-2(1H)-one] displayed a half-inhibitory concentration (IC50) of 36 nM.

As to `O=c1cc(C2CCNCC2)n2nc3cccc(O)c3c2[nH]1` [Example 105, 10-hydroxy-4-(piperidin-4-yl)pyrimido[1,2-b]indazol-2(1H)-one hydrobromide], the IC50 was 74 nM.

`O=c1cc(C2CCNCC2)n2nc3cccc(-c4ccncc4)c3c2[nH]1` [Example 59, 4-(Piperidin-4-yl)-10-(pyridin-4-yl)pyrimido[1,2-b]indazol-2(1H)-one hydrochloride] returned an IC50 of 16 nM.

For the compound `COc1cccc2nn3c(C4CCNCC4)cc(=O)[nH]c3c12` [Example 8, 10-Methoxy-4-(piperidin-4-yl)pyrimido[1,2-b]indazol-2(1H)-one hydrochloride], half-maximal inhibition (IC50) was put at 46 nM.

For `CCOc1cccc2nn3c([C@@H]4CCN[C@@H](C)C4)cc(=O)[nH]c3c12` [Example 52, (−)-trans-10-Ethoxy-4-(2-methylpiperidin-4-yl)pyrimido[1,2-b]indazol-2(1H)-one hydrochloride], it took 13 nM to reach half-maximal inhibition (IC50).

Compound `CN(C)c1ccnc2nn3c(C4CCNCC4)cc(=O)[nH]c3c12` [Example 40, 10-(Dimethylamino)-4-(piperidin-4-yl)pyrido[2′,3′:3,4]pyrazolo[1,5-a]pyrimidin-2(1H)-one hydrochloride] displayed an IC50 of 38 nM.

On to `COc1ccc(-c2cccc3nn4c(C5CCNCC5)cc(=O)[nH]c4c23)cc1` [Example 54, 10-(4-Methoxyphenyl)-4-(piperidin-4-yl)pyrimido[1,2-b]indazol-2(1H)-one hydrochloride], for which the IC50 stood at 15 nM.

Compound `O=c1cc(C2CCNCC2)n2nc3cccc(-c4ccccc4C(F)(F)F)c3c2[nH]1` [Example 67, 4-(Piperidin-4-yl)-10-[2-(trifluoromethyl)phenyl]pyrimido[1,2-b]indazol-2(1H)-one hydrochloride] had an IC50 of 13 nM.

With `C[C@H]1C[C@H](c2cc(=O)[nH]c3c4c(Br)cccc4nn23)CCN1` [Example 50, (−)-trans-10-Bromo-4-(2-methylpiperidin-4-yl)pyrimido[1,2-b]indazol-2(1H)-one hydrochloride], half-maximal inhibition (IC50) was put at 14 nM.

Consider `O=c1cc(C2CCNCC2)n2nc3cncc(Br)c3c2[nH]1` [Example 43, 10-Bromo-4-(piperidin-4-yl)pyrido[3′,4′:3,4]pyrazolo[1,5-a]pyrimidin-2(1H)-one hydrochloride], for which inhibition was half-maximal at 100 nM (IC50).

In turn, `O=c1cc(C2CCNCC2)n2nc3cccc(-c4cnc[nH]4)c3c2[nH]1` [Example 103, 10-(1H-imidazol-5-yl)-4-(piperidin-4-yl)pyrimido[1,2-b]indazol-2(1H)-one hydrochloride] gave an IC50 of 110 nM.

As for `O=c1cc(C2CCNCC2)n2nc3cccc(-n4cncn4)c3c2[nH]1` [Example 91, 4-(Piperidin-4-yl)-10-(1H-1,2,4-triazol-1-yl)pyrimido[1,2-b]indazol-2(1H)-one hydrochloride], the IC50 amounted to 27 nM.

As to `O=c1cc(C2CCNCC2)n2nc3cccc(-c4cccs4)c3c2[nH]1` [Example 88, 4-(Piperidin-4-yl)-10-(2-thienyl)pyrimido[1,2-b]indazol-2(1H)-one hydrochloride], the IC50 came to 26 nM.

In turn, `CC(C)Oc1ccccc1-c1cccc2nn3c(C4CCNCC4)cc(=O)[nH]c3c12` [Example 94, 10-(2-Isopropoxyphenyl)-4-(piperidin-4-yl)pyrimido[1,2-b]indazol-2(1H)-one hydrochloride] returned an IC50 of 35 nM.

Turning to `O=c1cc(C2CCNCC2)n2nc3cc(Cl)ccc3c2[nH]1` [Example 39, 8-Chloro-4-(piperidin-4-yl)pyrimido[1,2-b]indazol-2(1H)-one hydrochloride], the IC50 is 24 nM.

In turn, `O=c1cc(C2CCNCC2)n2nc3cccc(C(F)(F)F)c3c2[nH]1` [Example 12, 4-(Piperidin-4-yl)-10-(trifluoromethyl)pyrimido[1,2-b]indazol-2(1H)-one hydrochloride] returned an IC50 of 32 nM.

Regarding `O=c1cc(C2CCNCC2)n2nc3c(C(F)(F)F)cccc3c2[nH]1` [Example 30, 4-(Piperidin-4-yl)-7-(trifluoromethyl)pyrimido[1,2-b]indazol-2(1H)-one hydrochloride], the midpoint of inhibition, the IC50, lay at 46 nM.

Staying with this test, now noted: diluted human citrated plasma (platelet-poor, 5%), fibrinogen 3 μM, CaCl2 10 mM, tPA 0.2 nM, 37° C., OD 405 nm; hydrochloride.
`O=c1cc(C2CCNCC2)n2nc3cccc(Br)c3c2[nH]1` [Example 10, 10-Bromo-4-(piperidin-4-yl)pyrimido[1,2-b]indazol-2(1H)-one hydrochloride] displayed an IC50 of 34 nM.

The compound `O=c1cc(C2CCNCC2)n2nc3cccc(Cl)c3c2[nH]1` [Example 3, 10-Chloro-4-(piperidin-4-yl)pyrimido[1,2-b]indazol-2(1H)-one hydrochloride] had an IC50 of 28 nM.
